Data from patent publication US6225306A, “Biphenyl derivatives and drug composition” (Wakamoto Pharmaceutical Co., Ltd., priority 1997, dated 2001).
“And” between values parts separate entries of the source, which are not always exact repeats. Equal entries are not always repeated. Structures can show the parent of a compound that is named as a salt. Where two headings read alike, the source gives them in different places.

Tests used:
male ICR mice = test: Acute Toxicity Test; format: in vivo
Protocol: To groups of male ICR mice (6-week-old) each consisting of 5 animals, there were orally administered the compounds of Examples 13, 18, 25 and 30 and Comparative Examples 2 and 5 suspended in 5% gum arabic solution at doses of 150, 500 and 1500 mg/kg, followed by observation of the general symptoms of these animals during 7 days after the administration to thus evaluate the number of death. In this respect, mice were given feed and water ad libitum throughout this test except for the term extending from 16 to 20 hours before the administration and 4 hours after the administration.

Vasopressin V1 Receptor = Vasopressin V1 Receptor (Rattus norvegicus, UniProt P30560); test: biochemical; format: binding, rat (Sprague-Dawley, female; liver crude membrane); conditions: for inhibition at 0.1 µM: 1 h, read-out: Binding Rate of Vasopressin V1 Receptor
Protocol: The livers excised from Sprague-Dawley female rats were cut into small pieces, and were homogenized in 50 mM Tris-HCl, pH 7.4 hereunder referred to as "buffer"). The homogenate was centrifuged at 50000×g, at 4° C. for 20 minutes. The pellet was added the buffer in an amount of 10 times the volume of the pellet, the mixture was recentrifuged by the same method as described above to wash the residue. The buffer was further added to the resulting pellet so that the protein content thereof was adjusted to 10 mg/ml to thus give a crude membrane fraction of rat liver. The crude membrane fraction of rat liver was used in the following test. More specifically, 5000 μg of the crude liver membrane was incubated with [^3 H]-Arg-vasopressin V-1 antagonist ([^3 H) vasopressin V1 antagonist: 2 nM) and various concentration (3×10^-12 to 10^-6) of the test compounds in a 1000 μL of buffer containing 10 mM magnesium chloride, 10 mM potassium chloride and 0.1% bovine serum albumin at 25° C. for 60 minutes. Thereafter the incubation mixture was rapidly filtered by vacuum using a cell harvester. The filters were washed with buffer to remove free ligands and excess buffer, and to thus trap labeled ligand linked with the receptor on the filter paper. The filter paper was sufficiently dried and mixed with a liquid scintillator, and the amount of the [^3 H] vasopressin V1 antagonist bonded to the membrane was determined using a liquid scintillation counter. The inhibition rate at each concentration was calculated according to the following equation:
Inhibition Rate (%)=100-[(B-N)/(B0 -N)]×100
Wherein B represents the amount of the [^3 H] vasopressin V1 antagonist bonded to the membrane in the presence of known amounts of the compound to be tested and the [^3 CH] vasopressin V1 antagonist;
B0 represents the amount of the [^3 H] vasopressin V1 antagonist bonded to the membrane in the absence of the compound to be tested;
N represents the amount of the [^3 H] vasopressin V1 antagonist bonded to the membrane in the presence of an excess of vasopressin (10^-6 M).
The IC50 value (the concentration required to cause 50% inhibition of the specific binding of [^3 H]-V1 antagonist) was determined. […] On the other hand, for the compounds which were investigated only one concentration (10^-7 M), the inhibition rate at that concentration was defined to be the binding rate.

Vasopressin V2 Receptor = Vasopressin V2 Receptor (Rattus norvegicus, UniProt Q00788); test: biochemical; format: binding, rat (Sprague-Dawley, female; kidney crude membrane); conditions: for inhibition at 0.1 µM: 1 h, read-out: Binding Rate of Vasopressin V2 Receptor
Normal Conscious Rat = test: Aquaretic Effects in Normal Conscious Rat (urine volume); format: in vivo, rat (Sprague-Dawley, male)
Protocol: Aquaretic Effects in Normal Conscious Rat
Studies were performed with Sprague-Dawley male SPF rats (body weight: 240 to 320 g; 8-week-old). In this experiment, each group consisted of not less than 4 animals and rats were fasted over 16 to 20 hours. The animals were acclimatized in metabolic cages for one hour, then each compound to be tested was dissolved in 100% N,N-dimethylformamide or suspended in 5% gum arabic solution and administered to these animals intravenously (iv.) in a dose of 3 mg/kg or orally (p.o.) in a dose of 30 mg/kg. Immediately after the test compound or vehicle were orally administered, saline (25 ml/kg) was given orally. Spontaneous voided urines were collected for 4 hours after the administration of the compound and the amount of the urine were determined. In this case, the control group consisted of animals to which only 5% gum arabic was orally administered.
In addition, known compounds of Comparative Examples 2 and Comparative Examples 3 and 4 represented by the following formulas were used as control compounds.

[1] = 150 mg/kg, oral, 7 days observation
[2] = 500 mg/kg, oral, 7 days observation
[3] = 1500 mg/kg, oral, 7 days observation
[4] = 10^-7 M, inhibition rate at this concentration

Vasopressin V2 Receptor, sequence (Q00788 whole entry): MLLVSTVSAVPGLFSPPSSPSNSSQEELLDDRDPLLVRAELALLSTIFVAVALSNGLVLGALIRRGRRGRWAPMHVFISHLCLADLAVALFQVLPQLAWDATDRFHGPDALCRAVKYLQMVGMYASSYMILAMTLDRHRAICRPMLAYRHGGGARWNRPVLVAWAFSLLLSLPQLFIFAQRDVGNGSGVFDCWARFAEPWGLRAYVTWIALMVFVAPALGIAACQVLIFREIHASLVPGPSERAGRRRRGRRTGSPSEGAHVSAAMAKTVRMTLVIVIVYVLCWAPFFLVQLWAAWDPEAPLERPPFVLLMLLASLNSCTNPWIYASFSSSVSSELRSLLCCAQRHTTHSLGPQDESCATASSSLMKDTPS
Vasopressin V1 Receptor, sequence (P30560 whole entry): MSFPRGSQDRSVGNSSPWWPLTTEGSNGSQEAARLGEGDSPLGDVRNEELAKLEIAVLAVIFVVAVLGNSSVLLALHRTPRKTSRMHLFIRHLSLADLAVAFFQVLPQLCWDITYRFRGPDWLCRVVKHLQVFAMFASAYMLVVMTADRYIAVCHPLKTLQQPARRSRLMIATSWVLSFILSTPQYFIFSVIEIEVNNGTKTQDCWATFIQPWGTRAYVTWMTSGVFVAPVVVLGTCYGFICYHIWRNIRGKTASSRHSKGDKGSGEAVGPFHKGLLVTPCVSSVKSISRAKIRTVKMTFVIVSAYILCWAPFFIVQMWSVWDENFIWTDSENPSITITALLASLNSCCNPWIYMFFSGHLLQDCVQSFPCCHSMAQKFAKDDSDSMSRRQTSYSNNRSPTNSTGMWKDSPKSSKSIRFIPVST

inhibition at 0.1 µM (Vasopressin V1 Receptor; [4]) [%] | inhibition at 0.1 µM (Vasopressin V2 Receptor; [4]) [%] | Compound | Amount of Urine Volume (Normal Conscious Rat; 3 mg/kg, i.v.) [ml/kg/0-4 hr.] | Amount of Urine Volume (Normal Conscious Rat; 30 mg/kg, p.o.) [ml/kg/0-4 hr.] | further results
33.5 | 100 | Cc1ccc(-c2ccccc2C(=O)Nc2ccc(C(=O)N3C[C@H]4C[C@H](N(C)C)CN4c4ccccc43)cc2)cc1 [Example 22, (2S, 3aR)-2-(N,N-Dimethylamino)-5-[4-[[2-(4-Tolyl) Benzoy]Amino]Benzoyl]-1,2,3,3a,4,5-Hexahydro-Pyrrolo[1,2-a]Quinoxaline Hydrochloride] | 58.8 | 79.6 | 
98.6 | 95.1 | O=C(Nc1ccc(C(=O)N2CC[C@H]3C[C@H](O)CN3c3ccccc32)cc1)c1ccccc1-c1ccccc1 [Example 54, (2S, 3aS)-2-Hydroxy-6-[4-[(2-Phenylbenzoyl) Amino]Benzoyl]-2,3,3a,4,5,6-Hexahydro-1H-Pyrrolo[1,2-a][1,5]Benzodiazepine] | 78.3 | 68.0 | 
4 | 100 | Cc1ccc(-c2ccccc2C(=O)Nc2ccc(C(=O)N3C[C@@H]4CCCN4C(=O)c4ccccc43)cc2)cc1 [Example 26, (11aS)-10-[4-[[2-(4-Tolyl) Benzoyl]Amino]Benzoyl]-1,2,3,10,11,11a-Hexahydro-5H-Pyrrolo[2,1-c][1,4]Benzodiazepin-5-One] | 72.3 | 88.3 | 
95.7 | 100 | O=C(Nc1ccc(C(=O)N2CC[C@H]3C[C@@H](O)CN3c3ccccc32)cc1)c1ccccc1-c1ccccc1 [Example 52, (2R,3aS)-2-Hydroxy-6-[4-[(2-Phenylbenzoyl) Amino]Benzoyl]-2,3,3a,4,5,6-Hexahydro-1H-Pyrrolo[1,2-a][1,5]Benzodiazepine] | 60.6 | 36.6 | 
16.5 | 100 | Cc1ccc(-c2ccccc2C(=O)Nc2ccc(C(=O)N3C[C@H]4CC(=O)CN4c4ccccc43)cc2)cc1 [Example 24] | 49.4 | 46.1 | 
18.9 | 99.5 | O=C(Nc1ccc(C(=O)N2C[C@@H]3C[C@H](O)CN3C(=O)c3ccccc32)cc1)c1ccccc1-c1ccccc1 [Example 29, (2S, 11aS)-2-Hydroxy-10-[4-[(2-Phenylbenzoyl) Amino]Benzoyl]-1,2,3,10,11,11a-Hexahydro-5H-Pyrrolo[2,1-c][1,4]Benzodiazepin-5-One] | 50.4 | 14.0 | 
92.4 | 97.8 | O=C(Nc1ccc(C(=O)N2CC[C@@H]3C[C@@H](O)CN3c3ccccc32)cc1)c1ccccc1-c1ccccc1 [Example 50] | 60.0 | 36.0 | 
4.7 | 100 | Cc1ccc(-c2ccccc2C(=O)Nc2ccc(C(=O)N3C[C@@H]4CCCN4C(=S)c4ccccc43)cc2)cc1 [Example 38, (11aS)-10-[4-[[2-(4-Tolyl) Benzoyl]Amino]Benzoyl]-1,2,3,10,11, 11a-Hexahydro-5H-Pyrrolo[2,1-c][1,4]Benzodiazepin-5-Thione] | 60.0 | 66.6 | 

The next lines start with the compound.

Compound | inhibition at 0.1 µM (Vasopressin V1 Receptor; [4]) [%] | inhibition at 0.1 µM (Vasopressin V2 Receptor; [4]) [%] | Amount of Urine Volume (Normal Conscious Rat; 3 mg/kg, i.v.) [ml/kg/0-4 hr.] | Amount of Urine Volume (Normal Conscious Rat; 30 mg/kg, p.o.) [ml/kg/0-4 hr.] | further results
Cc1nc2c([nH]1)-c1ccccc1N(C(=O)c1ccc(NC(=O)c3ccccc3-c3ccccc3)cc1)CC2 [Comparative Example 5, reference compound] |  |  |  |  | number of death out of 5 or 6 animals (male ICR mice; [1]): 0/5; number of death out of 5 or 6 animals (male ICR mice; [2]): 2 out of 5 and 2/5; number of death out of 5 or 6 animals (male ICR mice; [3]): 2 out of 5 and 2/5
Cc1ccccc1C(=O)Nc1ccc(C(=O)N2CCCC(N(C)C)c3ccccc32)cc1 (centres unmarked) [Comp. Ex. 2, reference compound] |  |  | 22.9 | 79.1 | IC50 (Vasopressin V1 Receptor): > 1000 nM; inhibition at 0.1 µM (Vasopressin V1 Receptor): 3.4%; inhibition at 0.1 µM (Vasopressin V2 Receptor): 91.2%; number of death out of 5 or 6 animals (male ICR mice; mouse, in vivo): 4 out of 5 and 0/5 and 4/5
Cc1ccc(-c2ccccc2C(=O)Nc2ccc(C(=O)N3C[C@H]4C[C@H](O)CN4c4ccccc43)cc2)cc1 [Example 18, (2S, 3aR)-2-Hydroxy-5-[4-[[2-(4-Tolyl) Benzoyl]Amino]Benzoyl]-1,2,3,3a,4,5-Hexahydro-Pyrrolo[1,2-a]Quinoxaline] | 58.3 | 100 | 79.2 | 96.3 | IC50 (Vasopressin V1 Receptor; [3H] vasopressin V1 antagonist 2 nM, 25° C., 60 minutes, read-out: Affinity for Vasopressin V1 Receptor, IC50): 66 nM; IC50 (Vasopressin V2 Receptor; [3H] vasopressin V2 antagonist 2 nM, 25° C., 60 minutes, read-out: Affinity for Vasopressin V2 Receptor, IC50): 0.18 nM; number of death out of 5 or 6 animals (male ICR mice; [1]): 0/6; number of death out of 5 or 6 animals (male ICR mice; [2]): 0/6; number of death out of 5 or 6 animals (male ICR mice; [3]): 0/6
Cl.O=C(Nc1ccc(C(=O)N2C[C@H]3CCCN3Cc3ccccc32)cc1)c1ccccc1-c1ccccc1 [Example 43, (11aR)-10-[4-[(2-Phenylbenzoyl) Amino]Benzoyl]-1,2,3,10,11, 11a-Hexahydro-5H-Pyrrolo[2,1-c][1,4]Benzodiazepine Hydrochloride] |  |  | 77.5 | 121.6 | inhibition at 0.1 µM (Vasopressin V1 Receptor): 61.6%; inhibition at 0.1 µM (Vasopressin V2 Receptor): 100%
O=C(Nc1ccc(C(=O)N2C[C@H]3C[C@@H](O)CN3c3ccccc32)cc1)c1ccccc1-c1ccccc1 [Example 13, (2R,3aR)-2-Hydroxy-5-[4-[(2-Phenylbenzoyl) Amino]Benzoyl]-1,2,3,3a,4,5-Hexahydro-Pyrrolo[1,2-a]Quinoxaline] |  |  | 55.6 | 82.0 | number of death out of 5 or 6 animals (male ICR mice; [2]): 0/5; number of death out of 5 or 6 animals (male ICR mice; [3]): 0/5
Cl.O=C1C[C@@H]2CN(C(=O)c3ccc(NC(=O)c4ccccc4-c4ccccc4)cc3)c3ccccc3CN2C1 [Example 48, (11aR)-10-[4-[(2-Phenylbenzoyl) Amino]Benzoyl]-1,2,3,10,11, 11a-Hexahydro-5H-Pyrrolo[2,1-c][1,4]Benzodiazepin-2-One Hydrochloride] |  |  | 78.9 | 14.8 | inhibition at 0.1 µM (Vasopressin V1 Receptor): 42.3%; inhibition at 0.1 µM (Vasopressin V2 Receptor): 96.8%
O=C1C[C@H]2CN(C(=O)c3ccc(NC(=O)c4ccccc4-c4ccccc4)cc3)c3ccccc3C(=O)N2C1 [Example 30, (11aS)-10-[4-[(2-Phenylbenzoyl) Amino]Benzoyl]-1,2,3,10,11, 11a-Hexahydro-5H-Pyrrolo [2,1-c][1,4]Benzodiazepin-2,5-Dione] |  |  | 57.1 | 103.0 | number of death out of 5 or 6 animals (male ICR mice; [1]): 0/6; number of death out of 5 or 6 animals (male ICR mice; [2]): 0/6; number of death out of 5 or 6 animals (male ICR mice; [3]): 0/6
O=C(Nc1ccc(C(=O)N2CC[C@@H]3CCCN3c3ccccc32)cc1)c1ccccc1-c1ccccc1 [Example 49, (3aS)-6-[4-[(2-Phenylbenzoyl) Amino]Benzoyl]-2,3,3a,4,5,6-Hexahydro-1H-Pyrrolo[1,2-a][1,5]Benzodiazepine] | 88.3 | 92.8 | 76.5 | 43.8 | 
